The data set in a line: Citral solution / stable suspension limit. It counts as physicochemical. From the text: The choice of terpene may vary and mixtures of terpenes in an appropriate amount may be used. Thus, in one embodiment the terpene component includes one or more terpenes which contain oxygen. Citral, for example citral 95, is an oxygenated C10H16 terpene, C10H16O CAS No. 5392-40-5 (3,7-dimethyl-2,6-octadien-1-al). A stable suspension of citral can be formed up to about 2500 ppm. Citral can be made into a solution at up to about 500 ppm. A stable suspension of hollow glucan particles incorporating citral of 25 ppt citral can be made.

As to `CC(C)=CCCC(C)=CC=O` [Citral, 3,7-dimethyl-2,6-octadien-1-al], the “Concentration up to which citral can be made into a solution” value (solution) is given as “up to 500 ppm”. For the same compound, where the note is “stable suspension”, the “Concentration up to which a stable suspension of citral can be formed” value is reported as “up to 2500 ppm”.

For the origin of these results see US10383329B2, “Preservatives” (Eden Research PLC, priority 2012, dated 2019).
